Measured values: patent publication US20090042993A1, “IDENTIFICATION OF NOVEL POST-TRANSLATIONAL PROTEIN MODIFICATIONS” (priority 2007, published 2009)
Peptide text beside a SMILES is read from it. * marks the point of attachment. Cbz = O=C(OCc1ccccc1)*

What was measured:
[1] = biological target: T1, ER membrane acetyl-CoA transport activity (Cricetulus griseus, UniProt G3H231); assay: Acetyl-CoA transport assay into intact ER vesicles; assay type: biochemical, Chinese Hamster; conditions: ER vesicles, increasing concentrations of Coenzyme A
T1 sequence (G3H231 1-550): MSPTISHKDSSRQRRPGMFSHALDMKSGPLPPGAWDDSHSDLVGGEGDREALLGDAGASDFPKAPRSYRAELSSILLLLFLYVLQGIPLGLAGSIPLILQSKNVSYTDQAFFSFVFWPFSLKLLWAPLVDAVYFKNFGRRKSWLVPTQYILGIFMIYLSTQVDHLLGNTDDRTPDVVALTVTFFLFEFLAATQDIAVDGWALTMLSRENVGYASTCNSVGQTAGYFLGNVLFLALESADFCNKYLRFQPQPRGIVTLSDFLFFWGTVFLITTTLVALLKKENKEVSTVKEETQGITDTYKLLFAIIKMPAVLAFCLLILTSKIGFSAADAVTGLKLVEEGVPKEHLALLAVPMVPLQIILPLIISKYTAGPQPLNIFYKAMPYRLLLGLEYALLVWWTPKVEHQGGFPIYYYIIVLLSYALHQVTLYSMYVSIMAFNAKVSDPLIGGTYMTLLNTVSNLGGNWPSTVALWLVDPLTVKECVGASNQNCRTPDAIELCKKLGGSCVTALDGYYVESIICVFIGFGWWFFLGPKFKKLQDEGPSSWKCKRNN

BACE1 = BACE1 steady-state levels by Western blot in stably transfected CHO cells; assay type: cell-based, human; conditions: CHO cells, proteasome inhibitor for 10 hours (MG-132 5 μM, lactacystin 10 μM)
Method: Chinese Hamster Ovary (CHO) cells were grown in DMEM (Gibco BRL—Invitrogen, Carlsbad, Calif.) supplemented with 10% fetal bovine serum (FBS) and penicillin/streptomycin (Mediatech, Inc., Herndon, Va.) as described before (Puglielli et al., 2001, Nat. Cell Biol. 3: 905-912; Puglielli et al., 2003, J. Biol. Chem. 278: 19777-19783; Costantini et al., 2005, Biochem. J. 391: 59-67; Costantini et al., 2006, EMBO J. 25: 1997-2006). Cells were maintained in a humidified atmosphere with 5% CO2. For ceramide treatment, C6-ceramide (also simply called ceramide herein) was administered at the final concentration of 10 μM; treatment was started when cells were ˜30% confluent and carried out for 4 days, unless specified otherwise. Treatment with proteasome inhibitors MG-132 (5 μM) and lactacystin (10 μM) was done for 10 hours, as described earlier (Qing et al., 2004, FASEB J. 18: 1571-1573).
Cell lysates were prepared in GTIP buffer (100 mM Tris-pH 7.6, 20 mM EDTA, 1.5 M NaCl) with 1% Triton X-100 (Roche, Basel, Switzerland), 0.25% NP40 (Roche), and a protease inhibitor cocktail (Roche) as described before (Puglielli et al., 2003, J. Biol. Chem. 278: 19777-19783; Costantini et al., 2005, Biochem. J. 391: 59-67). Briefly, cell monolayers were washed twice in PBS, scraped, transferred into eppendorf tubes, and centrifuged at 8,000 rpm for 5 min in a table-top centrifuge. Cell pellets were then lysed in ice for 30 min with the buffer indicated above, and centrifuged again at 14,000 rpm prior to the recollection of the protein extracts. Proteins were quantitated with the BCA Protein Assay (Pierce, Rockford, Ill.) following the manufacturer's instructions.
For the immunoprecipitation of BACE1, cell lysates were pre-cleared with BioMag Protein A (Polysciences, Inc., Warrington, Pa.); beads were used at the concentration of 15 μl of the slurry per sample and separated with a magnetic holder. BACE1 was then immunoprecipitated with anti-BACE1 antibodies overnight and recovered with BioMag Protein A as above. The immunoprecipitate-bead complexes were washed 3 times in PBS and boiled for 10 min in SDS sample buffer (Invitrogen) with β-mercaptoethanol. Beads were then separated and the samples were analyzed by reducing SDS-PAGE.
Western blotting was performed on 10% Bis-Tris, 4-12% Bis-Tris, or 7% Tris-Acetate SDS-PAGE systems (NuPAGE; Invitrogen) as described (Puglielli et al., 2001, Nat. Cell Biol. 3: 905-912; Puglielli et al., 2003, J. Biol. Chem. 278: 19777-19783; Costantini et al., 2005, Biochem. J. 391: 59-67; Costantini et al., 2006, EMBO J. 25: 1997-2006). The following antibodies were used: anti-BACE1 N-terminal (monoclonal antibody; R&D Systems, Minneapolis, Minn.); anti-BACE1 C-terminal (polyclonal antibody; Abcam, Cambridge, Mass.); anti-pro-BACE1 (polyclonal; Abcam); anti-acetylated lysine (monoclonal; Abcam); anti-calreticulin (ER marker, polyclonal; Abcam); anti-58 K Golgi/formiminotransferase cyclodeaminase (Golgi marker, polyclonal; Abcam); anti-syntaxin (Golgi marker, monoclonal; Abcam); anti-EEA1 (endosomes, monoclonal; BD Transduction Laboratories, Lexington, Ky.); anti-actin (polyclonal; Cell Signaling, Danvers, Mass.). Secondary antibodies (Amersham) were used at a 1:6000 dilution. Binding was detected by chemiluminescence (LumiGLO kit; KPL, Gaithersburg, Md.). Only a representative blot of at least three different experiments is shown throughout the paper.
FIG. 1 illustrates how BACE1 is transiently acetylated in the lumen of the ER. For this experiment, CHO cells expressing human BACE1 were treated with C6-ceramide (also simply called ceramide herein) for different periods of time. BACE1 was then immunoprecipitated and analyzed by Western blotting. FIG. 1(A): CHO cells stably expressing BACE1 were treated with ceramide for the indicated time. BACE1 was immunoprecipitated from total cell lysates, separated on a 7% Tris-Acetate NuPAGE system, and then analyzed by Western blot using either anti-BACE1 or anti-acetylated lysine antibodies. […]

## CC(C)(COP(=O)(O)OP(=O)(O)OC[C@H]1O[C@@H](n2cnc3c(N)ncnc32)[C@H](O)[C@@H]1OP(=O)(O)O)[C@@H](O)C(=O)NCCC(=O)NCCS [Coenzyme A]
[1]
  acetyl-CoA transport across the ER membrane: inhibited

## CC(C)C[C@@H](C=O)NC(=O)[C@H](CC(C)C)NC(=O)[C@H](CC(C)C)NC(=O)OCc1ccccc1 [MG-132] (Cbz-Leu-Leu-Leu-aldehyde)
BACE1
  steady-state levels of BACE1Ala: not those of BACE1Ala
  steady-state levels of BACE1WT: successfully increased

## CC(=O)N[C@@H](CSC(=O)[C@]1([C@@H](O)C(C)C)NC(=O)[C@H](C)[C@@H]1O)C(=O)O [lactacystin]
BACE1
  steady-state levels of BACE1Ala: not those of BACE1Ala
  steady-state levels of BACE1WT: successfully increased
